Experimental data taken from publication PMC12196347, “Evaluating Triazole-Substituted Pyrrolopyrimidines as CSF1R Inhibitors” (Molecules, 2025).
Where two headings read alike, the source gives them in different places.

Tests used:
cKIT kinase = target: T1, cKIT kinase (Homo sapiens, UniProt P10721); test: KIT inhibition (KD), TR-FRET tracer displacement; format: binding; conditions: kinase tracer 236, anti-GST antibody Eu-conjugate, read-out: KIT enz. KD
T1 construct: purchased Carna Biosciences

RET = RET (Homo sapiens, UniProt P07949); test: Kinase panel profiling: RET; format: biochemical; conditions: ATP equal to KM
AURKA (Aurora A) = target: T2, AURKA (Aurora A) (Homo sapiens, UniProt O14965); test: Kinase panel profiling: AURKA; format: biochemical; conditions: ATP equal to KM
T2 construct: purchased Thermo Fisher Scientific (Invitrogen) SelectScreen (Z'-LYTE)
T2 sequence (O14965 1-403): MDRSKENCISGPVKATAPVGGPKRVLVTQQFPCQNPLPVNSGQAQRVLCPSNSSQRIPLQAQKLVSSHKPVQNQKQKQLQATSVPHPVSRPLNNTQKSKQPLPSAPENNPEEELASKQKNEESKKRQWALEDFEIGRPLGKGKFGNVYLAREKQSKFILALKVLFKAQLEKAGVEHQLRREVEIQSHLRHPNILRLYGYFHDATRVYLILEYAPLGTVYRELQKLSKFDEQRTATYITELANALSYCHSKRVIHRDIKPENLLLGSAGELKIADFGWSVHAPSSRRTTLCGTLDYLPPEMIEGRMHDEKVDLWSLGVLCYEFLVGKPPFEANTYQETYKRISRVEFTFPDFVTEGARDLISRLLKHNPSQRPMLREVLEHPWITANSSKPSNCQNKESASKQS

EPHA2 = target: T3, EPHA2 (Homo sapiens, UniProt P29317); test: Kinase panel profiling: EPHA2; format: biochemical; conditions: ATP equal to KM
T3 construct: purchased Thermo Fisher Scientific (Invitrogen) SelectScreen (Z'-LYTE)

MDCK permeability assay = format: in vitro ADME, canine; conditions: dog, MDCK cell monolayer
FGFR1 = target: T4, FGFR1 (Homo sapiens, UniProt P11362); test: Kinase panel profiling: FGFR1; format: biochemical; conditions: ATP equal to KM
T4 construct: purchased Thermo Fisher Scientific (Invitrogen) SelectScreen (Z'-LYTE)

AURKB (Aurora B) = target: T5, AURKB (Aurora B) (Homo sapiens, UniProt Q96GD4); test: Kinase panel profiling: AURKB; format: biochemical; conditions: ATP equal to KM
T5 construct: purchased Thermo Fisher Scientific (Invitrogen) SelectScreen (Z'-LYTE)

BTK = target: T6, BTK (Homo sapiens, UniProt Q06187); test: Kinase panel profiling: BTK; format: biochemical; conditions: ATP equal to KM
T6 construct: purchased Thermo Fisher Scientific (Invitrogen) SelectScreen (Z'-LYTE)

FYN = target: T7, FYN (Homo sapiens, UniProt P06241); test: Kinase panel profiling: FYN; format: biochemical; conditions: ATP equal to KM
T7 construct: purchased Thermo Fisher Scientific (Invitrogen) SelectScreen (Z'-LYTE)

[1] = test system: KIT-positive cell line GIST-T1; test: GIST-T1 CellTiter-Glo cell viability assay; format: cell-based; conditions: Homo sapiens, GISTT1; cellular proliferation, GIST-T1, 72 h
ABL2 (Arg) = target: T8, ABL2 (Arg) (Homo sapiens, UniProt P42684); test: Kinase panel profiling: ABL2; format: biochemical; conditions: ATP equal to KM
T8 construct: purchased Thermo Fisher Scientific (Invitrogen) SelectScreen (Z'-LYTE)

JAK2 = target: T9, JAK2 (Homo sapiens, UniProt O60674); test: Kinase panel profiling: JAK2; format: biochemical; conditions: ATP equal to KM
T9 construct: purchased Thermo Fisher Scientific (Invitrogen) SelectScreen (Z'-LYTE)

ERBB2 (HER2) = target: T10, ERBB2 (HER2) (Homo sapiens, UniProt P04626); test: Kinase panel profiling: ERBB2; format: biochemical; conditions: ATP equal to KM
T10 construct: purchased Thermo Fisher Scientific (Invitrogen) SelectScreen (Z'-LYTE)

EGFR (ErbB1) = target: T11, EGFR (ErbB1) (Homo sapiens, UniProt P00533); test: Kinase panel profiling: EGFR; format: biochemical; conditions: ATP equal to KM
T11 construct: purchased Thermo Fisher Scientific (Invitrogen) SelectScreen (Z'-LYTE)

PLK1 = PLK1 (Homo sapiens, UniProt P53350); test: Kinase panel profiling: PLK1; format: biochemical; conditions: ATP equal to KM
[2] = test system: IL-3 dependent Ba/F3 cell line (CSF1R independent); test: Control assay for cellular toxicity, Ba/F3 cells dependent on IL-3; format: cell-based; conditions: Mus musculus, BaF3; Ba/F3 cells dependent on IL-3, control for cellular toxicity
ERBB4 (HER4) = target: T12, ERBB4 (HER4) (Homo sapiens, UniProt Q15303); test: Kinase panel profiling: ERBB4; format: biochemical; conditions: ATP equal to KM
T12 construct: purchased Thermo Fisher Scientific (Invitrogen) SelectScreen (Z'-LYTE)

CLK1 = target: T13, CLK1 (Homo sapiens, UniProt P49759); test: Kinase panel profiling: CLK1; format: biochemical; conditions: ATP equal to KM
T13 construct: purchased Thermo Fisher Scientific (Invitrogen) SelectScreen (Z'-LYTE)

[3] = Mouse liver microsome intrinsic clearance, Phase I; format: in vitro ADME; conditions: in vitro intrinsic clearance
[4] = Human liver microsome intrinsic clearance, Phase I; format: in vitro ADME; conditions: in vitro intrinsic clearance
[5] = 1000 nM test concentration, read-out: Average inhibition (%)
[6] = 1000 nM, first data point, read-out: Inhibition (%)
[7] = 1000 nM, second data point, read-out: Inhibition (%)

T9 sequence (O60674 whole entry): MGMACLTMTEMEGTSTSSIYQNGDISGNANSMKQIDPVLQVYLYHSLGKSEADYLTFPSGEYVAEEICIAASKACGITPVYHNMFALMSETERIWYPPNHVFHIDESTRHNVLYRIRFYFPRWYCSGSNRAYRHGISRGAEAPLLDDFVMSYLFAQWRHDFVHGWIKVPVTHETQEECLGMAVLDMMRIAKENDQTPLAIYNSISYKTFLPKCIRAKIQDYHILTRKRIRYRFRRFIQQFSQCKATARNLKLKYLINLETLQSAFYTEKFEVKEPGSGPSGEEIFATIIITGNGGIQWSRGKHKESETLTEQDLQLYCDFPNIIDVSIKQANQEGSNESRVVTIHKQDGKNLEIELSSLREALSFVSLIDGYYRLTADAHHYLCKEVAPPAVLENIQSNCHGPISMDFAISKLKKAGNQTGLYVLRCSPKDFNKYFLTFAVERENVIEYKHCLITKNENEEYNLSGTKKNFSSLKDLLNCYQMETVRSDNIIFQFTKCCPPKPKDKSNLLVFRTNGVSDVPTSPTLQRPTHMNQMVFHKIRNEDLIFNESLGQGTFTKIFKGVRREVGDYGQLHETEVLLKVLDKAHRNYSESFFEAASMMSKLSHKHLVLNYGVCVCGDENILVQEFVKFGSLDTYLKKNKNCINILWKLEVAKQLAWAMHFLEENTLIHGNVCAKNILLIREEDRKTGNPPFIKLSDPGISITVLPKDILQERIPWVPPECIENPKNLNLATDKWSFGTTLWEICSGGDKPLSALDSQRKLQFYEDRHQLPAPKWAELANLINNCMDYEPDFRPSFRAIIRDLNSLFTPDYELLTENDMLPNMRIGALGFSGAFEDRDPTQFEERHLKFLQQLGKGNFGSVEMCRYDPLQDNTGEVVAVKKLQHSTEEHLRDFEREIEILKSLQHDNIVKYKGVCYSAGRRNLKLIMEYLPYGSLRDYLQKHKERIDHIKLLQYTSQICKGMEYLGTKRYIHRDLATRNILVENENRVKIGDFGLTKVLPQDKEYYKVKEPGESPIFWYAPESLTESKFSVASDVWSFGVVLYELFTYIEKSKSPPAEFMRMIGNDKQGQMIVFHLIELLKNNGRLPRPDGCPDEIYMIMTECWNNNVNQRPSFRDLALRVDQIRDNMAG
T3 sequence (P29317 24-976): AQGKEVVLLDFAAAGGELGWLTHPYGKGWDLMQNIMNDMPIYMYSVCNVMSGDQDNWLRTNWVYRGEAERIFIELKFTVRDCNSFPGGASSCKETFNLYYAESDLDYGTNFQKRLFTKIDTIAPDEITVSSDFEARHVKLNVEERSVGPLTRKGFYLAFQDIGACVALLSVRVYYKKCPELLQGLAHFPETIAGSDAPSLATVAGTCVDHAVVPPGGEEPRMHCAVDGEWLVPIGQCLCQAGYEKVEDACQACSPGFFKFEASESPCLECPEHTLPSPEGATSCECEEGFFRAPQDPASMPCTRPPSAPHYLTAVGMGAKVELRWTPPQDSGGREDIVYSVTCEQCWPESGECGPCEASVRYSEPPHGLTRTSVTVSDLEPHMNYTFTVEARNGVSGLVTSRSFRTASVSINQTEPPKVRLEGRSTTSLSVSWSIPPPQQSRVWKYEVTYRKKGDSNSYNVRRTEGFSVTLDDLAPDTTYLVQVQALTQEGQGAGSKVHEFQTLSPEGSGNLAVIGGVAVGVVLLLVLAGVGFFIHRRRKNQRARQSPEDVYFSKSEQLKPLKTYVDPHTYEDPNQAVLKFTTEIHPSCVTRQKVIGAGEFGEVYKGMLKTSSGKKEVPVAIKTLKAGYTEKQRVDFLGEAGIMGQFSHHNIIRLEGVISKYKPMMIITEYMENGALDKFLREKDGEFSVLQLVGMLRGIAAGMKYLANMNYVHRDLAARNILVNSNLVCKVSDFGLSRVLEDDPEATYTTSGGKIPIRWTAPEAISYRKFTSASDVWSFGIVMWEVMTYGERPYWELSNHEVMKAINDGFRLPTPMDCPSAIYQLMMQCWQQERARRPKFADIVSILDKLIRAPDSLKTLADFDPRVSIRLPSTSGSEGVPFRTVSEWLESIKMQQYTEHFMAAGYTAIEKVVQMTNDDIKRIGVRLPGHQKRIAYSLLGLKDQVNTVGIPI
T5 sequence (Q96GD4 whole entry): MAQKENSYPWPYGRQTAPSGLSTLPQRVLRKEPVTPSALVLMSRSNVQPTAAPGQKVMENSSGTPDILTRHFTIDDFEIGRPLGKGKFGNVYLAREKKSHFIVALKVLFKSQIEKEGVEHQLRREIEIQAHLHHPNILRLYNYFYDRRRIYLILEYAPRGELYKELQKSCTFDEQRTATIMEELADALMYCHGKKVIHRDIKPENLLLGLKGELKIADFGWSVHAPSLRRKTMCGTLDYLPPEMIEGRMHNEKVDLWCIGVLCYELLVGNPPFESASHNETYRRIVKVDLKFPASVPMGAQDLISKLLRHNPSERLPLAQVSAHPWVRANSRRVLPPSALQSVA
T10 sequence (P04626 23-1255): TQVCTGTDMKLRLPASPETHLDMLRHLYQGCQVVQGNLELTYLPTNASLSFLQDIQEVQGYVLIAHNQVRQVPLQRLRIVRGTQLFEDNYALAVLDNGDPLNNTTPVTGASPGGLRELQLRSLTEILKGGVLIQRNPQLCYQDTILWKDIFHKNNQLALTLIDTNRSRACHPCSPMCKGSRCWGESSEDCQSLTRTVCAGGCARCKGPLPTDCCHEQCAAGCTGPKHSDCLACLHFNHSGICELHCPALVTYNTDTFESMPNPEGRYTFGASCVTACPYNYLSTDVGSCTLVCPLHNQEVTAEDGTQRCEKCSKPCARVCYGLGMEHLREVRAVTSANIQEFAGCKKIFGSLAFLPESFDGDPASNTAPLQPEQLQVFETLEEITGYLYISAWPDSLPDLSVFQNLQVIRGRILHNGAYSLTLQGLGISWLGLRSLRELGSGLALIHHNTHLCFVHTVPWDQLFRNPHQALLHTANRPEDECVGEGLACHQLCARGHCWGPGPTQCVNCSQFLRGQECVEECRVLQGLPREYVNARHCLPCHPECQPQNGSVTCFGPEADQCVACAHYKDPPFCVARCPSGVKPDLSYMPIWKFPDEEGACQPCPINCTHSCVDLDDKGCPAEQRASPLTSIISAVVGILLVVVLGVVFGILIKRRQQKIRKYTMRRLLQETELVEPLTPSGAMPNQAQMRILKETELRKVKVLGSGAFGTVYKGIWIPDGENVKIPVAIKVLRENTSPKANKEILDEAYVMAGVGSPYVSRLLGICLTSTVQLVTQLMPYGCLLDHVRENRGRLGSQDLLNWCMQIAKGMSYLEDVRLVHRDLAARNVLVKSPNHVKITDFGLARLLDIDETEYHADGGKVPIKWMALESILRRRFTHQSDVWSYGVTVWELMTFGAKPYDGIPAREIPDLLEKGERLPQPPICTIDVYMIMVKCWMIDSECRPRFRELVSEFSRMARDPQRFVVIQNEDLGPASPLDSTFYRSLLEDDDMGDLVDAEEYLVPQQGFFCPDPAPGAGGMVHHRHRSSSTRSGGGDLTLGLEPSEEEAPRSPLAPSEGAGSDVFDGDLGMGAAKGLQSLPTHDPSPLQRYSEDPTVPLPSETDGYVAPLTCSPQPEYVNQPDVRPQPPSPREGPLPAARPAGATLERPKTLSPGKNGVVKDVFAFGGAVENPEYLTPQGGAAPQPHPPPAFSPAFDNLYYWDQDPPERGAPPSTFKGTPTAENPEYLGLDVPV
T7 sequence (P06241 whole entry): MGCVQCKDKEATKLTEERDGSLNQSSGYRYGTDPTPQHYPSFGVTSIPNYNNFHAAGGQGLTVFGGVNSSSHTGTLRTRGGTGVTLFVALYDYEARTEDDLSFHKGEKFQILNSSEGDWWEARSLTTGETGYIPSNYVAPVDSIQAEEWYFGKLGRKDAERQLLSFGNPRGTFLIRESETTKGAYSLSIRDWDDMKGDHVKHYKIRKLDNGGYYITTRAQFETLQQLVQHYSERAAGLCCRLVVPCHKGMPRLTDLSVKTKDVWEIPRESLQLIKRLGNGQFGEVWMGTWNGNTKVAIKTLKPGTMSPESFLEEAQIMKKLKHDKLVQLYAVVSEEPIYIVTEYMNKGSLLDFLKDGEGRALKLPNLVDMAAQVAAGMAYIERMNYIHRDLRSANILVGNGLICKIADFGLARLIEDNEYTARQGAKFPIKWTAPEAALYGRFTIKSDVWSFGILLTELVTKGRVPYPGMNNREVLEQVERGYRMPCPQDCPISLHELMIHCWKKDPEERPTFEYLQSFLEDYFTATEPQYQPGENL
T6 sequence (Q06187 whole entry): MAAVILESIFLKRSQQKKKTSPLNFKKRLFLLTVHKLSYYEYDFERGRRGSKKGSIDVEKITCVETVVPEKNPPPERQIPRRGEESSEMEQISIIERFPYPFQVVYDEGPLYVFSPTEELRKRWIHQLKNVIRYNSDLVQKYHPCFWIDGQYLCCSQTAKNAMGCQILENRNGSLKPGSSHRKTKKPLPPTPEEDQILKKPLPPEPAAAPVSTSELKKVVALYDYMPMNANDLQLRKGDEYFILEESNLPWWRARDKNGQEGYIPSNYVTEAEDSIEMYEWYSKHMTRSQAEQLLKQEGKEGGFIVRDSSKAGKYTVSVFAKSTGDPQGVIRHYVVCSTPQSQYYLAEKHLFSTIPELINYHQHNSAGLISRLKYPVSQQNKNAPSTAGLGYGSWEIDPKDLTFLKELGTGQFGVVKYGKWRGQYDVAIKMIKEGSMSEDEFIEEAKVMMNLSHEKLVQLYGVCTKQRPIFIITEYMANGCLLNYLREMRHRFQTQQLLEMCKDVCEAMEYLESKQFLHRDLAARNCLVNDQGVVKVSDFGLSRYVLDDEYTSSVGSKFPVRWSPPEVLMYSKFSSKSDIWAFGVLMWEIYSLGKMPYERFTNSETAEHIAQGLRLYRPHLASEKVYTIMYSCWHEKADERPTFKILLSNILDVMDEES

Kd (cKIT kinase): 0.793 µM
inhibition at 1 µM (RET; [5]): 29%
inhibition at 1 µM (RET; [6]): 28%
inhibition at 1 µM (RET; [7]): 30%
inhibition at 1 µM (AURKA (Aurora A); [5]): 38%
inhibition at 1 µM (AURKA (Aurora A); [6]): 35%
inhibition at 1 µM (AURKA (Aurora A); [7]): 40%
inhibition at 1 µM (EPHA2; [5]): 89%
inhibition at 1 µM (EPHA2; [6]): 88%
inhibition at 1 µM (EPHA2; [7]): 91%
Papp A→B (MDCK permeability assay; A-B direction): 1.27 ×10⁻⁶ cm/s
Papp B→A (MDCK permeability assay; B-A direction): 3.18 ×10⁻⁶ cm/s
efflux ratio (MDCK permeability assay; read-out: Ratio Papp B > A/Papp A > B): 2.5
inhibition at 1 µM (FGFR1; [5]): 9%
inhibition at 1 µM (FGFR1; [6]): 9%
inhibition at 1 µM (FGFR1; [7]): 8%
inhibition at 1 µM (AURKB (Aurora B); [5]): 47%
inhibition at 1 µM (AURKB (Aurora B); [6]): 47%
inhibition at 1 µM (AURKB (Aurora B); [7]): 46%
inhibition at 1 µM (BTK; [5]): 46%
inhibition at 1 µM (BTK; [6]): 50%
inhibition at 1 µM (BTK; [7]): 42%
inhibition at 1 µM (FYN; [5]): 76%
inhibition at 1 µM (FYN; [6]): 75%
inhibition at 1 µM (FYN; [7]): 77%
inhibition at 1 µM (ABL2 (Arg); [5]): 100%
inhibition at 1 µM (ABL2 (Arg); [6]): 100%
inhibition at 1 µM (JAK2; [5]): 26%
inhibition at 1 µM (JAK2; [6]): 25%
inhibition at 1 µM (JAK2; [7]): 26%
inhibition at 1 µM (ERBB2 (HER2); [5]): 32%
inhibition at 1 µM (ERBB2 (HER2); [6]): 33%
inhibition at 1 µM (ERBB2 (HER2); [7]): 32%
inhibition at 1 µM (EGFR (ErbB1); [5]): 85%
inhibition at 1 µM (EGFR (ErbB1); [6]): 84%
inhibition at 1 µM (EGFR (ErbB1); [7]): 87%
inhibition at 1 µM (PLK1; [5]): 6%
inhibition at 1 µM (PLK1; [6]): 5%
inhibition at 1 µM (PLK1; [7]): 6%
inhibition at 1 µM (ERBB4 (HER4); [5]): 14%
inhibition at 1 µM (ERBB4 (HER4); [6]): 13%
inhibition at 1 µM (ERBB4 (HER4); [7]): 15%
inhibition at 1 µM (CLK1; [5]): 8%
inhibition at 1 µM (CLK1; [6]): 8%
MLM [3]: 295 µL/min/mg
HLM [4]: 53.7 µL/min/mg
SMILES: Cc1cccc(CN(C)c2ncnc3[nH]c(-c4cn(Cc5cccnc5)nn4)cc23)c1 [Compound 27a, N-Methyl-N-(3-methylbenzyl)-6-(1-(pyridin-3-ylmethyl)-1H-1,2,3-triazol-4-yl)-7H-pyrrolo[2,3-d]pyrimidin-4-amine]
IC50 [1]: > 30 µM
IC50 [2]: > 10 µM
